Values of other authors, collected in patent publication US20040072764A1, “Composition, in particular cosmetic, containing 7-hydroxy dhea and/or 7-keto dhea and at least an isoflavonoid” (priority 2000, published 2004).

Tests used:
skin = details: on rats; cited from WO 00/28996
fibroblasts = details: cited from WO 98/40074
human keratinocytes = details: cited from WO 98/40074
[1] = cited from WO 98/40074

C[C@]12CC[C@H](O)CC1=C[C@@H](O)[C@@H]1[C@@H]2CC[C@]2(C)C(=O)CC[C@@H]12 [7α-hydroxy-DHEA]
collagen content of the skin (skin): increased | elastin content of the skin (skin): increased | thickness of the dermis (skin): increased | proliferation of the fibroblasts (fibroblasts): increase | viability of the human keratinocytes (human keratinocytes): increase | anti-free radical effects [1]: had anti-free radical effects
